The nature of data set [1]: Metabolite profiling of MASM in rats by UHPLC-QQQ-MS/MS. In kind it is in vivo, Sprague-Dawley rats. Conditions: rat. The method, then: The identification of the in vivo metabolites of MASM was conducted using UHPLC-QQQ-MS/MS combined with standard references and deuterium-labeled MASM. The findings are presented in Table 2, while the proposed primary metabolic pathway of MASM in rats is depicted in Figure 4. To provide a comprehensive understanding of the metabolite identification process, three representative metabolites of MASM are presented, with their identification relying on primary and secondary mass spectrometry data, standard references, and deuterium-labeled MASM. The remaining metabolites are detailed in Supplementary File S4. For instance, the identification of the metabolite, M1, as a demethylation product of MASM was accomplished through the utilization of MS, MS/MS data, and the standard reference. […] Moreover, the identification of M1 as the demethylation metabolite of MASM was accomplished using the standard reference synthesized in our laboratory. […] Secondly, the metabolite, M2, of MASM was identified as the dehydrogenation product of MASM through the utilization of MS and MS/MS data. […] Consequently, M2 was identified as a dehydrogenation metabolite of M1. Thirdly, through the utilization of MS, MS/MS data, and deuterium-labeled MASM, the metabolite, M8, of MASM was determined to be a dehydrogenation product of MASM. […] The major MS/MS fragment ions of M8 were found at m/z 111.92, 178.77, 150.16, and 135.85, which aligned with the characteristic cleavage pattern of matrine. Additionally, our lab synthesized deuterium-labeled MASM to further support our proposed structure. […] Consequently, M8 was identified as a dehydrogenation metabolite of MASM. The EIC, MS/MS spectrum of M8 and deuterium-labeled MASM are all depicted in Figure 5C.
UHPLC analysis was performed using a Thermo Accela AS system, employing an ACQUITY UPLC®BEH C18 (Waters Corporation, Wexfords, Ireland) (1.7 µm, 2.1 × 100 mm) column and a binary solvent system consisting of water containing 0.1% formic acid as mobile phase A and acetonitrile as mobile phase B. For pharmacokinetic evaluation, the gradient elution was set as follows: 97% A from 0 to 2 min, 97–70% A from 2 to 3 min, 70–20% A from 3 to 3.5 min, 20% A from 3.5 to 3.6 min, 20–97% A from 3.6 to 3.7 min, and 97% A from 3.7 to 5 min. For the metabolic test, the gradient elution in full scan mode was set as follows: 97% A from 0 to 2 min, 97–70% A from 2 to 4 min, 70–20% A from 4 to 6 min, 20% A from 6 to 7 min, 20–97% A from 7 to 8 min, and 97% A from 8 to 10 min. The flow rate was 0.2 mL/min, with a temperature of 40 °C maintained and an injection volume of 5 μL. The QQQ-MS/MS analysis was conducted using a Thermo TSQ QUANTUM ACCESS MAX system equipped with an electrospray ionization (ESI) source. The spray voltages were set at 4.0 kV and 2.5 kV for positive and negative ion modes, respectively; capillary and vaporizer temperatures were 320 °C and 350 °C, respectively; sheath and aux gas pressures were 35 and 10 psi, respectively.
Seventy Sprague-Dawley rats were fasted overnight before dosing, with free access to water. Subsequently, the rats were randomly and equally divided into 7 groups: the control groups received 3 different routes of administration: intravenous, intraperitoneal, and intragastric (NS, saline 1 mL/100 g); MASM intraperitoneal group (A, i.p. 80 mg/kg), MASM intragastrical group (B, i.g. 60 mg/kg), MASM intravenous group (C, i.v. 15 mg/kg), and DMASM intragastrical group (D, i.g. 60 mg/kg). It is important to note that the recommended clinical dose of matrine injection is 0.15 g, which is equivalent to a dosage of 15 mg/kg in rats. MASM was administered via tail vein injection at a dosage of 1 mL/100 g for intravenous dosing, while for intraperitoneal dosing, MASM was injected at the lower-right side of the abdomen of rats. […]

Data set [2] in a line: Stability of MASM in plasma QC samples. Type of data set: in vitro ADME. Conditions: QC samples: autosampler 4℃ 8 h, -80℃ 30 days, three freeze-thaw cycles. The method, then: determined by calculating the RSD of 6 samples analyzed on the same day, while the inter-day precision was determined by calculating the RSD of 3 analytical batches analyzed over 3 consecutive days.
1.4 Extraction recovery and matrix effect
The extraction recovery was in assessed by comparing the peak area of the blank […]
i n E q . […]
Extraction recovery=Ap/Ax×100% Eq. (1)
Matrix effect=Ax/As×100% Eq. (2)
Ap: 10 μl of high (H), medium (M), and low (L) concentration of standard solution and 300 μl of IS were added to 90 μl of blank plasma, respectively, then pre-processed by sample pretreatment method and injected to obtain the peak area A p. […]
The stability of analytes in plasma was assessed by analyzing peak area in three different concentration QC samples. The long-term stability was evaluated by analyzing samples that had been stored at a temperature of -80℃ for a duration of 30 days. […]
freeze-thaw stability was assessed by analyzing samples that had undergone three freeze-thaw cycles, transitioning from a temperature of -80℃ to 25℃. Post-preparative stability was assessed by analyzing samples that had been stored in the autosampler at 4℃ for a duration of 8 h. […]
0.990 across the relevant concentration ranges (Supplementary Table S1). The lower limit of the quantitation (LLOQ) was determined to be 5.03 ng/ml. […]

For the molecule `CNC1CC(=S)N2CC3CCCN4CCCC(C34)C2C1` [MASM, (6aS, 10S, 11aR, 11bR, 11cS)-10-methylaminododecahydro-3a, 7a-diaza-benzo (de) anthracene-8-thione], in data set [1], the “number of in vivo metabolites identified” value was 10; the “primary metabolic reactions (phase I)” value was “oxidation, reduction, and hydroxylation”. In data set [2], the stability in plasma result is “stable”.

These data come from paper PMC10820135, “Pharmacokinetic, Tissue Distribution, Metabolite, and Toxicity Evaluation of the Matrine Derivative, (6aS, 10S, 11aR, 11bR, 11cS)-10-Methylaminododecahydro-3a, 7a-Diaza-benzo (de) Anthracene-8-thione” (Molecules, 2024).
